According to PubChem BioAssay (NCI):
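Here, GI50 denotes the concentration required for 50% inhibition of growth. TGI denotes the concentration required for complete inhibition of growth.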

Columns and labels:
Test in all cases: NCI-60 cell line screen, 384-well format
ACHN renal = system: ACHN renal
NCI-H322M lung = system: NCI-H322M lung
OVCAR-4 ovarian = system: OVCAR-4 ovarian
BT-549 breast = system: BT-549 breast
HS 578T breast = system: HS 578T breast
HT29 colon = system: HT29 colon
MDA-MB-231 breast = system: MDA-MB-231 breast
IGROV1 ovarian = system: IGROV1 ovarian
MOLT-4 leukemia = system: MOLT-4 leukemia
SN12C renal = system: SN12C renal
A549 NSCLC = system: A549 NSCLC
SNB-19 CNS = system: SNB-19 CNS
HOP-62 NSCLC = system: HOP-62 NSCLC
U251 glioblastoma = system: U251 glioblastoma
NCI-H460 NSCLC = system: NCI-H460 NSCLC
NCI-H226 lung = system: NCI-H226 lung
SW-620 colon = system: SW-620 colon
MCF7 breast = system: MCF7 breast
CCRF-CEM leukemia = system: CCRF-CEM leukemia
MDA-MB-468 breast = system: MDA-MB-468 breast
UACC-62 melanoma = system: UACC-62 melanoma
A498 renal = system: A498 renal
786-0 renal = system: 786-0 renal
UACC-257 melanoma = system: UACC-257 melanoma
M14 melanoma = system: M14 melanoma
MDA-MB-435 melanoma = system: MDA-MB-435 melanoma
RXF 393 renal = system: RXF 393 renal
DU-145 prostate = system: DU-145 prostate
HCC-2998 colon = system: HCC-2998 colon
RPMI-8226 leukemia = system: RPMI-8226 leukemia
COLO 205 colon = system: COLO 205 colon
NCI-H23 lung = system: NCI-H23 lung
MALME-3M melanoma = system: MALME-3M melanoma
NCI/ADR-RES ovarian = system: NCI/ADR-RES ovarian
HOP-92 NSCLC = system: HOP-92 NSCLC
HCT-15 colon = system: HCT-15 colon
SF-295 CNS = system: SF-295 CNS
SF-539 CNS = system: SF-539 CNS
HL-60(TB) leukemia = system: HL-60(TB) leukemia
T-47D breast = system: T-47D breast
SR leukemia = system: SR leukemia
SK-MEL-28 melanoma = system: SK-MEL-28 melanoma
SK-OV-3 ovarian = system: SK-OV-3 ovarian
TK-10 renal = system: TK-10 renal
NCI-H522 lung = system: NCI-H522 lung
OVCAR-3 ovarian = system: OVCAR-3 ovarian
SK-MEL-2 melanoma = system: SK-MEL-2 melanoma
OVCAR-8 ovarian = system: OVCAR-8 ovarian
OVCAR-5 ovarian = system: OVCAR-5 ovarian
SF-268 CNS = system: SF-268 CNS
SNB-75 CNS = system: SNB-75 CNS
KM12 colon = system: KM12 colon
PC-3 prostate = system: PC-3 prostate
EKVX NSCLC = system: EKVX NSCLC
SK-MEL-5 melanoma = system: SK-MEL-5 melanoma
CAKI-1 renal = system: CAKI-1 renal

COCC1(CO)C(=O)C2CCN1CC2 (configuration not stated)
GI50 (ACHN renal): 20.3 µM | TGI (ACHN renal): 34.6 µM | GI50 (NCI-H322M lung): 19.7 µM | TGI (NCI-H322M lung): 35.2 µM | GI50 (OVCAR-4 ovarian): 2.6 µM | TGI (OVCAR-4 ovarian): 6.3 µM | GI50 (BT-549 breast): 11.5 µM | TGI (BT-549 breast): 23.7 µM | GI50 (HS 578T breast): 13.1 µM | TGI (HS 578T breast): 25.9 µM | GI50 (HT29 colon): 19 µM | TGI (HT29 colon): 33.2 µM | GI50 (MDA-MB-231 breast): 17.7 µM | TGI (MDA-MB-231 breast): 31.7 µM | GI50 (IGROV1 ovarian): 17.2 µM | TGI (IGROV1 ovarian): 31.1 µM | GI50 (MOLT-4 leukemia): 2.27 µM | TGI (MOLT-4 leukemia): 6.55 µM | GI50 (SN12C renal): 15.3 µM | TGI (SN12C renal): 28.8 µM | GI50 (A549 NSCLC): 18.2 µM | TGI (A549 NSCLC): 32.4 µM | GI50 (SNB-19 CNS): 17.5 µM | TGI (SNB-19 CNS): 31.5 µM | GI50 (HOP-62 NSCLC): 1.86 µM | TGI (HOP-62 NSCLC): 3.49 µM | GI50 (U251 glioblastoma): 18.7 µM | TGI (U251 glioblastoma): 32.8 µM | GI50 (NCI-H460 NSCLC): 17.4 µM | TGI (NCI-H460 NSCLC): 31.6 µM | GI50 (NCI-H226 lung): 21.9 µM | TGI (NCI-H226 lung): 36.4 µM | GI50 (SW-620 colon): 14.2 µM | TGI (SW-620 colon): 27.4 µM | GI50 (MCF7 breast): 3.68 µM | TGI (MCF7 breast): 12.4 µM | GI50 (CCRF-CEM leukemia): 1.76 µM | TGI (CCRF-CEM leukemia): 3.33 µM | GI50 (MDA-MB-468 breast): 3.28 µM | TGI (MDA-MB-468 breast): 7.2 µM | GI50 (UACC-62 melanoma): 18.2 µM | TGI (UACC-62 melanoma): 32.2 µM | GI50 (A498 renal): 16.7 µM | TGI (A498 renal): 30.5 µM | GI50 (786-0 renal): 15.5 µM | TGI (786-0 renal): 28.9 µM | GI50 (UACC-257 melanoma): 13.9 µM | TGI (UACC-257 melanoma): 27 µM | GI50 (M14 melanoma): 17.8 µM | TGI (M14 melanoma): 31.8 µM | GI50 (MDA-MB-435 melanoma): 16.9 µM | TGI (MDA-MB-435 melanoma): 30.7 µM | GI50 (RXF 393 renal): 2 µM | TGI (RXF 393 renal): 3.43 µM | GI50 (DU-145 prostate): 17.9 µM | TGI (DU-145 prostate): 32 µM | GI50 (HCC-2998 colon): 17.2 µM | TGI (HCC-2998 colon): 31 µM | GI50 (RPMI-8226 leukemia): 10.5 µM | TGI (RPMI-8226 leukemia): 22.3 µM | GI50 (COLO 205 colon): 18.1 µM | TGI (COLO 205 colon): 32.1 µM | GI50 (NCI-H23 lung): 11.8 µM | TGI (NCI-H23 lung): 24.2 µM | GI50 (MALME-3M melanoma): 17.5 µM | TGI (MALME-3M melanoma): 31.3 µM | GI50 (NCI/ADR-RES ovarian): 16.2 µM | TGI (NCI/ADR-RES ovarian): 29.9 µM | GI50 (HOP-92 NSCLC): 10.9 µM | TGI (HOP-92 NSCLC): 22.9 µM | GI50 (HCT-15 colon): 4.34 µM | TGI (HCT-15 colon): 13.9 µM | GI50 (SF-295 CNS): 17.5 µM | TGI (SF-295 CNS): 31.6 µM | GI50 (SF-539 CNS): 17.5 µM | TGI (SF-539 CNS): 31.3 µM | GI50 (HL-60(TB) leukemia): 13 µM | TGI (HL-60(TB) leukemia): 25.9 µM | GI50 (T-47D breast): 1.58 µM | TGI (T-47D breast): 2.94 µM | GI50 (SR leukemia): 14.6 µM | TGI (SR leukemia): 27.8 µM | GI50 (SK-MEL-28 melanoma): 20.6 µM | TGI (SK-MEL-28 melanoma): 35 µM | GI50 (SK-OV-3 ovarian): 19.3 µM | TGI (SK-OV-3 ovarian): 33.4 µM | GI50 (TK-10 renal): 17 µM | TGI (TK-10 renal): 30.7 µM | GI50 (NCI-H522 lung): 1.83 µM | TGI (NCI-H522 lung): 3.24 µM | GI50 (OVCAR-3 ovarian): 14.6 µM | TGI (OVCAR-3 ovarian): 27.9 µM | GI50 (SK-MEL-2 melanoma): 2.62 µM | TGI (SK-MEL-2 melanoma): 5.41 µM | GI50 (OVCAR-8 ovarian): 19.8 µM | TGI (OVCAR-8 ovarian): 34.1 µM | GI50 (OVCAR-5 ovarian): 16.5 µM | TGI (OVCAR-5 ovarian): 30.2 µM | GI50 (SF-268 CNS): 20 µM | TGI (SF-268 CNS): 34.2 µM | GI50 (SNB-75 CNS): 1.79 µM | TGI (SNB-75 CNS): 3.73 µM | GI50 (KM12 colon): 17.9 µM | TGI (KM12 colon): 32 µM | GI50 (PC-3 prostate): 19.1 µM | TGI (PC-3 prostate): 33.3 µM | GI50 (EKVX NSCLC): 16.9 µM | TGI (EKVX NSCLC): 30.6 µM | GI50 (SK-MEL-5 melanoma): 15.5 µM | TGI (SK-MEL-5 melanoma): 29 µM | GI50 (CAKI-1 renal): 17.1 µM | TGI (CAKI-1 renal): 30.9 µM
